Our source for the IC50 and HDAC isotype selectivity values is patent US20090124631A1, “Combination Therapy” (priority 2007, published 2009).

The structures appear in SMILES notation.

Common to all, as to type: biochemical
In assay [1] the target is T1, HDAC8 (Homo sapiens, UniProt Q9BY41).
T1 construct: HDAC6 and 8 were cloned as full length N-terminally His-tagged protein; His tag (N); made in house; host or cells: Sf-9 insect cells (baculovirus)
T1 sequence (Q9BY41 1-377): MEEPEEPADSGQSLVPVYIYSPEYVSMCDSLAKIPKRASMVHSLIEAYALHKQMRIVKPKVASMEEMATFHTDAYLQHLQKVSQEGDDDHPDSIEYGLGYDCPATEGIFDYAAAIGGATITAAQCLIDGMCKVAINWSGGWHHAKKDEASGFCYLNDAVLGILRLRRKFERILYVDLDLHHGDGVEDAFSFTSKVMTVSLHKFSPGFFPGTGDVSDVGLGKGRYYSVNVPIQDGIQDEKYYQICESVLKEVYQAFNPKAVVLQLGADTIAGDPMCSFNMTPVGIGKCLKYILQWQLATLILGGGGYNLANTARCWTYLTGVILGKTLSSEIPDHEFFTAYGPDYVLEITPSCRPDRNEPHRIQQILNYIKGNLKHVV
In words: Fluorescence-based HDAC enzyme assay, recombinant HDAC8. Conditions: recombinant human HDAC enzyme in vitro; read-out: IC50 (μM) HD8. The source says:
(§1) cDNAs of human HDAC1-8 and 11 were generated by RT-PCR reactions using primers complementary to the 5′ and 3′ coding sequence of human HDAC gene sequences in GenBank. cDNAs corresponding to the full length human HDAC1, 2, 3 and 11 were cloned into pBlueBac4.5 vector (Invitrogen). The constructs were used to generate recombinant baculoviruses using the Bac-N-Blue™ DNA according to the manufacturer's instructions (Invitrogen). The recombinant HDAC1, 2, 3, 11 proteins produced harbor a FLAG tag at their C-termini. cDNAs encoding truncated versions of HDAC4, 5 and 7 encompassing their deacetylase domains were cloned into pDEST10 as an N-terminal hexahistidine fusion protein and recombinant baculoviruses were generated using the Bac-to-Bac™ Baculovirus expression system (Invitrogen). HDAC6 and 8 were cloned as full length N-terminally His-tagged protein. All HDAC proteins were expressed in insect Sf-9 cells (Spodoptera frugiperdai) upon infection with recombinant baculovirus. HDAC1 enzyme was purified from the Q-sepharose FF column (Amersham Pharmacia Biotech, Baie d'Urfe QC, Canada) followed by an anti-FLAG immunoaffinity column (Sigma). HDAC2, 3 and 11 were purified using Flag-antibody immunoaffinity purification. HDAC4, 5, 6, 7 and 8 were purified using either Ni-NTA resin (QIAGEN Mississauga ON, Canada) or His-Select resin (Sigma) with step washes and elution with different concentrations of imidazole in Buffer containing 25 mM Tris (or NaPO4) pH 8.0, 10% glycerol and 150 mM or 500 mM NaCl.
(§2) Recombinant HDAC enzymes were incubated with diluted compounds in assay buffer (25 mM Hepes, pH 8.0, 137 mM NaCl, 1 mM MgCl2 and 2.7 mM KCl) for 10 minutes at ambient temperatures in black 96-well plate. Boc-Lys(Ac)-AMC (for HDAC1, 2, 3, 6, and 8 enzymes), which was purchased from Bachem Biosciences Inc., (King of Prussia, Philadelphia) were added into enzyme-compound mixture and incubated at 37° C. For HDAC4, 5, 7 assays, Boc-Lys(TFA)-AMC, which was synthesized in house, was used as substrate and 0.1% BSA was added to the buffer. […] Reaction time was predetermined to ensure that reaction was linear for the incubation time. Reaction was stopped by adding a freshly prepared trypsin (1 mg/ml final concentration) with 1 μM TSA (Biomol) in assay buffer. After 30 minutes, fluorescence was measured using a fluorometer (SPECTRAMAX GeminiXS, Molecular Devices, Sunnylvale, Calif.). The 50% inhibitory concentrations (IC50) for inhibitors were determined by analyzing dose-response inhibition curves.

Assay [2] concerns recombinant human HDAC enzymes. In words: HDAC isotype selectivity across recombinant HDAC enzymes. Conditions: from Table 1.
Text: as §1, with “HDAC2, 3 and 11 were purified using Flag-antibody immunoaffinity purification.” left out
as §2, with “Boc-Lys(Ac)-AMC” for “Recombinant HDAC enzymes were incubated with diluted compounds in assay buffer (25 mM Hepes, pH 8.0, 137 mM NaCl, 1 mM MgCl2 and 2.7 mM KCl) for 10 minutes at ambient temperatures in black 96-well plate. Boc-Lys(Ac)-AMC”, “Calif.).” for “Calif.). The 50% inhibitory concentrations (IC50) for inhibitors were determined by analyzing dose-response inhibition curves.”

Assay [3] deals with T2, HDAC1 (Homo sapiens, UniProt Q13547).
T2 construct: cDNAs corresponding to the full length human HDAC1, 2, 3 and 11 were cloned into pBlueBac4.5 vector; FLAG (C); made in house; host or cells: Sf-9 insect cells (baculovirus)
In words: Fluorescence-based HDAC enzyme assay, recombinant HDAC1. The conditions noted are these: recombinant human HDAC enzyme in vitro; read-out: IC50 (μM) HD1.
Text: as §1, with “HDAC2, 3 and 11 were purified using Flag-antibody immunoaffinity purification.” left out
as §2, with “Boc-Lys(Ac)-AMC” for “Recombinant HDAC enzymes were incubated with diluted compounds in assay buffer (25 mM Hepes, pH 8.0, 137 mM NaCl, 1 mM MgCl2 and 2.7 mM KCl) for 10 minutes at ambient temperatures in black 96-well plate. Boc-Lys(Ac)-AMC”, “Calif.).” for “Calif.). The 50% inhibitory concentrations (IC50) for inhibitors were determined by analyzing dose-response inhibition curves.”

T2 sequence (Q13547 whole entry): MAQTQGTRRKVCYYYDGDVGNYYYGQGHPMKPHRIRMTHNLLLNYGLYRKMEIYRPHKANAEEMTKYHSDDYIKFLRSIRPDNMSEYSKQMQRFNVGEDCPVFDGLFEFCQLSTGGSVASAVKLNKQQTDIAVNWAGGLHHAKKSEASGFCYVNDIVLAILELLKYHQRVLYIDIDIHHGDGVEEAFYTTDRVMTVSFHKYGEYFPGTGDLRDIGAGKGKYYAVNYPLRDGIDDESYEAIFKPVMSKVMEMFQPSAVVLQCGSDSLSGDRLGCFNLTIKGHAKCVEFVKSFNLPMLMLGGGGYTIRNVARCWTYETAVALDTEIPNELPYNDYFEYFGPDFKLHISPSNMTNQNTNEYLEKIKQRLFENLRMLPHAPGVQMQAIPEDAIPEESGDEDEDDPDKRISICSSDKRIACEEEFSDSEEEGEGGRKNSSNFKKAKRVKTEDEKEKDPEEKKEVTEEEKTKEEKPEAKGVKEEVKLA

`Nc1ccccc1NC(=O)c1ccc(N2CC[C@H](Nc3cccnc3)C2)cc1` [Compound B]: the IC50 in assay [1] amounted to 1.63 µM; in assay [3] it was 0.2 µM. The HDAC isotype selectivity entry in assay [2] is “selective inhibitors of HDAC1, 2 and 3”.
With `Nc1ccc(-c2ccccc2)cc1NC(=O)c1ccc(N2CC[C@H](N)C2)cc1` [Compound D], the IC50 in assay [1] is greater than 10 µM; in assay [3], 0.04 µM. In addition, the HDAC isotype selectivity entry in assay [2] is “selective for HDAC1 and HDAC 2”.
On to `Nc1ccc(-c2ccccc2)cc1NC(=O)c1ccc(N2CCC(N)CC2)cc1` [Compound E], for which the values for the half-inhibitory concentration (IC50) in assay [1] and in assay [3] were greater than 10 µM and 0.02 µM, respectively. Further, in assay [2], the HDAC isotype selectivity entry was “selective for HDAC1 and HDAC 2”.
In the case of `CN1CCN(c2ccc(C(=O)Nc3cc(-c4ccccn4)ccc3N)cc2)CC1` [Compound F], the IC50 in assay [1] is greater than 10 µM; in assay [3] it was 0.1 µM. In addition, the HDAC isotype selectivity result in assay [2] was “selective for HDAC1 and HDAC 2”.
`CN1CCN(c2ccc(C(=O)Nc3cc(-c4ccncc4)ccc3N)cc2)CC1` [Compound G]: the results for the IC50 in assay [1] and in assay [3] were greater than 10 µM and 0.06 µM, respectively. Moreover, the HDAC isotype selectivity entry in assay [2] is “selective for HDAC1 and HDAC 2”.
With `CC(C)N1CCN(c2ccc(C(=O)Nc3cc(-c4ccncc4)ccc3N)cc2)CC1` [Compound H], the IC50 in assay [1] was greater than 10 µM; in assay [3], 0.06 µM. In assay [2], the HDAC isotype selectivity entry was “selective for HDAC1 and HDAC 2”.
